Data on nine compounds can be found in ChEMBL document CHEMBL5465560, “Selectivity Literature for EUbOPEN Chemogenomic Library” (2024).

The target in assay [1] is Serine/threonine-protein kinase VRK2 (Homo sapiens) (UniProt Q86Y07). Kind of assay: Selectivity interaction (LanthaScreen Eu Kinase Binding Assay) EUB0001632a VRK2. The settings on record: at 10 µM. In general terms: In TR-FRET formats the signal depends on donor and acceptor labels being close together.
The target in assay [2] is Macrophage-stimulating protein receptor (Homo sapiens, UniProt Q04912). Put plainly: Selectivity interaction (KinomeScan (DiscoverX)) EUB0000607a MST1R. The settings on record: at 10 µM.
The target of assay [3] is 1-phosphatidylinositol 3-phosphate 5-kinase (Homo sapiens) (UniProt Q9Y2I7). Put plainly: Selectivity interaction (KinomeScan (DiscoverX)) EUB0001550a PIKFYVE. The settings on record: at 1 µM.
Assay [4] concerns the target Serine/threonine-protein kinase Nek6 (Homo sapiens) (UniProt Q9HC98). The settings on record: at 10 µM.
The target of assay [5] is Dual specificity protein kinase CLK3 (Homo sapiens, UniProt P49761). Put plainly: Selectivity interaction (ActivX KiNativ screen (kinase selectivity in THP-1 cell lysates)) EUB0000639a CLK3. It is filed as subcellular. The settings on record: lysate.
Chain of Dual specificity protein kinase CLK3 (P49761 whole entry, looked up): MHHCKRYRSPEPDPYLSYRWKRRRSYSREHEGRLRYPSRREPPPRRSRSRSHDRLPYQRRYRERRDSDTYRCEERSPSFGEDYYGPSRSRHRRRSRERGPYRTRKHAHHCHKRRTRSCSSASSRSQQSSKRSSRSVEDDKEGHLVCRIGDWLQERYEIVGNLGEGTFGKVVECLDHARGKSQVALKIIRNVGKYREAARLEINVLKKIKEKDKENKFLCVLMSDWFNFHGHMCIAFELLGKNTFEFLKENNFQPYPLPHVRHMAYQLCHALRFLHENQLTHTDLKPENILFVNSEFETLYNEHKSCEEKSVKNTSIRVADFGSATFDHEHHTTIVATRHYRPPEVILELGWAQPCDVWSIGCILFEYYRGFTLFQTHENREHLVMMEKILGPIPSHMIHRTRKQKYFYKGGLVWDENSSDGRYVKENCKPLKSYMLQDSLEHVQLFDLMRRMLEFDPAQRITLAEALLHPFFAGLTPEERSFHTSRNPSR
Assay [6] addresses Mitogen-activated protein kinase kinase kinase 4 (Homo sapiens) (UniProt Q9Y6R4). Put plainly: Selectivity interaction (ActivX KiNativ screen (kinase selectivity in THP-1 cell lysates)) EUB0000639a MAP3K4. It is filed as subcellular. The settings on record: lysate.
The target in assay [7] is T1, Tyrosine-protein kinase Mer (Homo sapiens) (UniProt Q12866).
T1 sequence (whole entry): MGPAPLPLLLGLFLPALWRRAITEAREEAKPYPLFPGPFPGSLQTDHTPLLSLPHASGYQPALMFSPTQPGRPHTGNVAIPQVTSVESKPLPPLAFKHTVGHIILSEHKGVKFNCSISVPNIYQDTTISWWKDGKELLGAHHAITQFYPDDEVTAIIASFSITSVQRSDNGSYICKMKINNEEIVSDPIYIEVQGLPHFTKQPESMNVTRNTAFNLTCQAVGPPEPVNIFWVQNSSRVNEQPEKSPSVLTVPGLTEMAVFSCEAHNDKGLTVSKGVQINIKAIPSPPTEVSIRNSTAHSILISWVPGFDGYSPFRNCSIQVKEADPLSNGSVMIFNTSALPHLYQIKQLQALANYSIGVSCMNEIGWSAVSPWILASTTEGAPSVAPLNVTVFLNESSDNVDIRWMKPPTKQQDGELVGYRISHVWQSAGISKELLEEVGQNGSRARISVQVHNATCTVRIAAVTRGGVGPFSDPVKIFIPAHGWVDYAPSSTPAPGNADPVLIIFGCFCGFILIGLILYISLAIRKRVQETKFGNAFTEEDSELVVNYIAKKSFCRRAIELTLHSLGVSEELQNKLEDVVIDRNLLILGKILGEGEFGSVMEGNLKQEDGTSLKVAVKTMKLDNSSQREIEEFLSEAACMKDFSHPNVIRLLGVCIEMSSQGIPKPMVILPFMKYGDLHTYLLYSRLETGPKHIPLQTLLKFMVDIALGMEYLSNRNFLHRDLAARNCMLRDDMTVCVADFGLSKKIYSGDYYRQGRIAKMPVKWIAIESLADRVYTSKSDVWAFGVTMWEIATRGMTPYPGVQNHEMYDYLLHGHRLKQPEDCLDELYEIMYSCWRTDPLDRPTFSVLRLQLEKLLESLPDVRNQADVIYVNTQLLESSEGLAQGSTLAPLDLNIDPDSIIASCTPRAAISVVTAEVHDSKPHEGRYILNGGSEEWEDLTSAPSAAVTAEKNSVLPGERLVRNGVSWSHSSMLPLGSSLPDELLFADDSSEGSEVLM
Put plainly: Selectivity interaction (KinomeScan (DiscoverX)) EUB0001049a MERTK. The settings on record: at 1 µM.

Assay [8] addresses T2, Rhodopsin kinase GRK7 (Homo sapiens) (UniProt Q8WTQ7).
T2 sequence (whole entry): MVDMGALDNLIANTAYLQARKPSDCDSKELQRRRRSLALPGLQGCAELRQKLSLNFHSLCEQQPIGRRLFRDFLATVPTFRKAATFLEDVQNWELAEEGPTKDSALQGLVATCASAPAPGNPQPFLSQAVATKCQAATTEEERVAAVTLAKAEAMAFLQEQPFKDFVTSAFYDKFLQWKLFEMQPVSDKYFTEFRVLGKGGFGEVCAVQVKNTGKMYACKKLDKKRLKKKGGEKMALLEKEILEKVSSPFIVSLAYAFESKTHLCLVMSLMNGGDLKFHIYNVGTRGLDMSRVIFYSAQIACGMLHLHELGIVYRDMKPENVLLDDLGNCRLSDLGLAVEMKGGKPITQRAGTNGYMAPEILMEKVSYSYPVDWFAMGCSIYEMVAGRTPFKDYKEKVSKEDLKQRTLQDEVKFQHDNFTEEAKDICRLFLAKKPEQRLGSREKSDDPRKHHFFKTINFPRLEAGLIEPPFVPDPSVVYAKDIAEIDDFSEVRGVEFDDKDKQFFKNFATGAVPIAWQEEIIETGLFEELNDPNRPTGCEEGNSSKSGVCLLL
Kind of assay: Selectivity interaction (KinomeScan (DiscoverX)) EUB0001049a GRK7. The settings on record: at 1 µM.

Assay [9] addresses MAP kinase-activated protein kinase 5 (Homo sapiens, UniProt Q8IW41). Kind of assay: Selectivity interaction (Kinase panel (33PanQinase(R) Activity Assay)) EUB0000877a MAPKAPK5.
Assay [10] has as its target Tyrosine-protein kinase Lck (Homo sapiens, UniProt P06239). Kind of assay: Selectivity interaction (Kinase panel (33PanQinase(R) Activity Assay)) EUB0000877a LCK.
The target of assay [11] is T3, Mitogen-activated protein kinase 15 (Homo sapiens) (UniProt Q8TD08).
T3 sequence (whole entry): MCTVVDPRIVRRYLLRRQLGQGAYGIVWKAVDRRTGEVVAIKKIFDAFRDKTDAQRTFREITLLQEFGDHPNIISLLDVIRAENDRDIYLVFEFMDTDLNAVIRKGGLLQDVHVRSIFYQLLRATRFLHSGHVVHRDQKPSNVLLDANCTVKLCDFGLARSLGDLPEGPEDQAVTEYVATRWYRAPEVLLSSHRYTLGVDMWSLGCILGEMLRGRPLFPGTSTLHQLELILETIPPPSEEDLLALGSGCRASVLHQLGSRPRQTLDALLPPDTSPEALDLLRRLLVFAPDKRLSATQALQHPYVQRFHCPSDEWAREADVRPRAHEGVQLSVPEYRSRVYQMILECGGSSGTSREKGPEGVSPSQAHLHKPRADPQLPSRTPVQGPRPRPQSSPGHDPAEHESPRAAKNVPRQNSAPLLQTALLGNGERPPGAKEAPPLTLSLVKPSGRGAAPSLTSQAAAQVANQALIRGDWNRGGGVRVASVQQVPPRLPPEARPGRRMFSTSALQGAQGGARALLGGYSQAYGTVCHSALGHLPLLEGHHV
Kind of assay: Selectivity interaction (KinomeScan (DiscoverX)) EUB0000655a MAPK15. The settings on record: at 10 µM.

Assay [12] has as its target Kappa-type opioid receptor (Homo sapiens, UniProt P41145). Kind of assay: Selectivity interaction (GPCR panel (PDSP screen)) EUB0001079a OPRK1. The settings on record: at 10 µM.

Chain of Mitogen-activated protein kinase kinase kinase 4 (Homo sapiens) (Q9Y6R4 whole entry): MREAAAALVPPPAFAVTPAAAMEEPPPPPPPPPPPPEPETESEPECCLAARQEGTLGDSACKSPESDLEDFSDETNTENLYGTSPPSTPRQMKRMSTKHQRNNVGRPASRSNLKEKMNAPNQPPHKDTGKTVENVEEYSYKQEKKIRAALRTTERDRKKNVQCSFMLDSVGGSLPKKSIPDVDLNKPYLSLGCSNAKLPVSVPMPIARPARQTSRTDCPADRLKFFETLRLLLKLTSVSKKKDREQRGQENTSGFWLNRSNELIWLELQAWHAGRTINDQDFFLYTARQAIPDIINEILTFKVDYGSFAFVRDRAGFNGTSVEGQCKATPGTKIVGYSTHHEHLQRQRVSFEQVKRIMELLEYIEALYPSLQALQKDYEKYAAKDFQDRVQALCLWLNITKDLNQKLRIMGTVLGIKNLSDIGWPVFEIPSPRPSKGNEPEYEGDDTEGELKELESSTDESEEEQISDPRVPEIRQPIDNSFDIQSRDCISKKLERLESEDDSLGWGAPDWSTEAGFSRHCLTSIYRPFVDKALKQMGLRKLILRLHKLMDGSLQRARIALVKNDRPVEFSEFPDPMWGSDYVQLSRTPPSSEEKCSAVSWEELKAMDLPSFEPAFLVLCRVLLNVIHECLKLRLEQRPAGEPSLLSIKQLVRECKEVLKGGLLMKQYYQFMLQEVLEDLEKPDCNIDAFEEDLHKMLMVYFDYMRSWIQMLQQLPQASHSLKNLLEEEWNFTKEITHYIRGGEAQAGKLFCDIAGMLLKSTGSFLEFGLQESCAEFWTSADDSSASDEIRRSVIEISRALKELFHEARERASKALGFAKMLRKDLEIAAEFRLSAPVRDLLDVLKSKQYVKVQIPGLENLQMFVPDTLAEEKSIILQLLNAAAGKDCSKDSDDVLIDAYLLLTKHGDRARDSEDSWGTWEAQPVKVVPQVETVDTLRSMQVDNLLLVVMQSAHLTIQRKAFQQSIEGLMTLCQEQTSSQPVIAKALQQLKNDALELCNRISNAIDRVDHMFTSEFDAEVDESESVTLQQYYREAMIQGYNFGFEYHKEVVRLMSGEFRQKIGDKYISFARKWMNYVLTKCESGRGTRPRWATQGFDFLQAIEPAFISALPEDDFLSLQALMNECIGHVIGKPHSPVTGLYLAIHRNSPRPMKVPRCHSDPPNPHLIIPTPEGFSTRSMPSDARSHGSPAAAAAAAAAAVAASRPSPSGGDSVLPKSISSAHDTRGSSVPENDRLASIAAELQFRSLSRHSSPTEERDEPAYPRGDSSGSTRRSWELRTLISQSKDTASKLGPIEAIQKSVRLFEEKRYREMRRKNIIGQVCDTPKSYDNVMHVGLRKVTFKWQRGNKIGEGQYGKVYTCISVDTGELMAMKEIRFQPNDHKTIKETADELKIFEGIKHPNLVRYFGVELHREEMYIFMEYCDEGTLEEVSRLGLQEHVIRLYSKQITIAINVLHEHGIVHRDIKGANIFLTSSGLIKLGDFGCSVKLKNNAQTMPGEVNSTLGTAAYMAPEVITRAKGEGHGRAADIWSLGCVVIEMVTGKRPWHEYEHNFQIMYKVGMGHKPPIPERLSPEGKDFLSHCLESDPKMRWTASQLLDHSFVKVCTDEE
Chain of Serine/threonine-protein kinase Nek6 (Homo sapiens) (Q9HC98 whole entry): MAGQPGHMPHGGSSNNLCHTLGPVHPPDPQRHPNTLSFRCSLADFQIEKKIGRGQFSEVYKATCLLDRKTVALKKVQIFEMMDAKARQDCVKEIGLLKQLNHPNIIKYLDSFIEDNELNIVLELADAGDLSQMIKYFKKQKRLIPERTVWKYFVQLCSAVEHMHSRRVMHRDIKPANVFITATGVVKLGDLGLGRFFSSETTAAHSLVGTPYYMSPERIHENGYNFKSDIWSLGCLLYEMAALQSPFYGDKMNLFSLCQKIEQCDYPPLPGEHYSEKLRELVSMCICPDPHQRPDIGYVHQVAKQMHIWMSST
Chain of Serine/threonine-protein kinase VRK2 (Homo sapiens) (Q86Y07 whole entry): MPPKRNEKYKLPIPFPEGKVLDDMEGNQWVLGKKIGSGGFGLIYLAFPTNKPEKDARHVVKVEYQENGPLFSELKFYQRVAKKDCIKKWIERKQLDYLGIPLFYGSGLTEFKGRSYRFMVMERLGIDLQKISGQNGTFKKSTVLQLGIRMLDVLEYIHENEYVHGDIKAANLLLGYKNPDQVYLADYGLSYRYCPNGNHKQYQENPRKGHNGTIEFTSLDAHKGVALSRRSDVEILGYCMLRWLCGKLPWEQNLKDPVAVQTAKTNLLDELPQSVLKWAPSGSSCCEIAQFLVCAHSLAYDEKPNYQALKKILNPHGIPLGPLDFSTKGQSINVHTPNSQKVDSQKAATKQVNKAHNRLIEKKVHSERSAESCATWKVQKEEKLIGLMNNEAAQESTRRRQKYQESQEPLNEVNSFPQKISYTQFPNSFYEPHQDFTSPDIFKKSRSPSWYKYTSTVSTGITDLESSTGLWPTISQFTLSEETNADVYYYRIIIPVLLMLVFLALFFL
Chain of Tyrosine-protein kinase Lck (P06239 whole entry): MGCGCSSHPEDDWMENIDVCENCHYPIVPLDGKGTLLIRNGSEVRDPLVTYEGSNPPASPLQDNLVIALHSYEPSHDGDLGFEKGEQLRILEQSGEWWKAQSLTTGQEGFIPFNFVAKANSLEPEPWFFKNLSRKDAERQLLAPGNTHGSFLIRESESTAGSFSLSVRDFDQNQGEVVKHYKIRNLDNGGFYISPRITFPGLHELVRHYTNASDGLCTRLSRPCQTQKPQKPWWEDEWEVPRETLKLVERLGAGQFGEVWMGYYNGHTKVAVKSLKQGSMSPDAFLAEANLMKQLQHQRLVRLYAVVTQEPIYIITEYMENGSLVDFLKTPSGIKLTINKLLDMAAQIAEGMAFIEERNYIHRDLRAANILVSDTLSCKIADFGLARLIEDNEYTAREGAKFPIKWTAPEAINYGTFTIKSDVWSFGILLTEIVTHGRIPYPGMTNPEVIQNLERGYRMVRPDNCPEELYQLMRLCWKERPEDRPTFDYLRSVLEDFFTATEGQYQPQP
Chain of MAP kinase-activated protein kinase 5 (Q8IW41 whole entry): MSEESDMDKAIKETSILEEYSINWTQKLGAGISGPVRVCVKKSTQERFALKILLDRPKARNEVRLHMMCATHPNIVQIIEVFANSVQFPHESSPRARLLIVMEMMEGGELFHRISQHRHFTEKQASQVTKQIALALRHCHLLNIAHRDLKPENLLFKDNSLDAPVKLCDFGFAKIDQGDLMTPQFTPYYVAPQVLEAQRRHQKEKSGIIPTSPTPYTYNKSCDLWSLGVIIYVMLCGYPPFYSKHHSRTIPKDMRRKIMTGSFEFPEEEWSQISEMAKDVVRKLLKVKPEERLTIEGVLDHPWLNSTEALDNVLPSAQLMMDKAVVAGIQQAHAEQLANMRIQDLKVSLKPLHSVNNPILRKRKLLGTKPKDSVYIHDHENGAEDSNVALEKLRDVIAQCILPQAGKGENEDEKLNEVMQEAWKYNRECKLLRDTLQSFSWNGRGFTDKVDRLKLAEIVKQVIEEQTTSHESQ
Chain of Kappa-type opioid receptor (P41145 whole entry): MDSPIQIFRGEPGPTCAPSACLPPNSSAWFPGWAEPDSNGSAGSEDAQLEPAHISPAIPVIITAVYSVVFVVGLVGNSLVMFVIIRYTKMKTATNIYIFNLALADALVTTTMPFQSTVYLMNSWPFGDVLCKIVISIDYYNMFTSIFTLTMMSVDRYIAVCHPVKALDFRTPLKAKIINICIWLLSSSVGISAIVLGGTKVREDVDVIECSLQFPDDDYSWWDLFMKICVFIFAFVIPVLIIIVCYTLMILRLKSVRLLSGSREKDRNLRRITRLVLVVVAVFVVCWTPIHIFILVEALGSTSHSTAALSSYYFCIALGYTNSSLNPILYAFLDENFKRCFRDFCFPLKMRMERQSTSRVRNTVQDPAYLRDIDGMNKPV

Consider `Cn1cc(-n2cnc3c(NCc4nc5cc(Cl)c(Cl)cc5[nH]4)nc(N4CCOCC4)nc32)cn1`, for which the % of inhibition in assay [1] is -14%.
For the compound `CNC(=O)Nc1ccc(-c2nc(N3CC4CCC(C3)O4)c3cnn(C4CCC5(CC4)OCCO5)c3n2)cc1`, in [2], the % of control worked out at 100%.
Take `CN(C)CC#Cc1ccc2[nH]c3c(c2c1)-c1nc(N)ncc1CCC3`: the % of control in assay [3] is 0.1%.
`Cc1cc([C@@H](C)Nc2ccccc2C(=O)O)c2nc(N3CCOCC3)cc(=O)n2c1` [AZD-6482]: in assay [4], the % of control amounted to 100%.
For `CC[C@@H]1[C@H](F)C(=O)N[C@@H]1COc1nccc2cc(C(N)=O)c(OC)cc12` [ZIMLOVISERTIB], the % of inhibition is 8.2% in [5] (at 0.01 µM); 15.5% in [5] (at 0.04 µM); 0.7% in assay [5] (at 0.2 µM); 5.8% in [5] (at 1 µM); 12.1% in assay [5] (at 5 µM); 18.5% in [6] (at 0.01 µM). The % of inhibition was -5.7% in [6] (at 0.04 µM), -1.4% in assay [6] (at 0.2 µM), -23% in assay [6] (at 1 µM) and 6.4% in assay [6] (at 5 µM).
In the case of `COc1cc(Nc2nc(C)cc(-c3cnn4nc(OC)ccc34)n2)cc(C(F)(F)F)c1`, the % of control was 98% in assay [7] and 83% in assay [8].
A word on the IC50: it is the concentration that inhibits the measured activity by half. Regarding `CCC(=O)N1CC[C@H](Nc2ncnc3c2CN(c2cnc(OC)c(C(F)(F)F)c2)CC3)C1` [LENIOLISIB], the 50% inhibitory concentration (IC50) in assay [9] and in assay [10] was more than 10 µM each time.
`CN(C)CCOc1ccc(-c2nc(-c3ccncc3)c(-c3ccc4c(c3)CC/C4=N\O)[nH]2)cc1`: the % of control in assay [11] came out at 100%.
Turning to `Nc1cnc(N2CCc3cc(S(=O)(=O)Nc4c(F)cc(Cl)cc4F)cc(N4CCCC4=O)c32)nc1` [TP-020n], the % of inhibition in assay [12] is 14.9%.
